US8377993B2, “Insecticidal compound” (Dainihon Jochugiku Co., Ltd., priority 2010, dated 2013)
Entries after “also recorded” stand apart in the source; their conditions may differ.

What was measured:
Female house mosquitoes = assay: Petri dish insecticidal efficacy test (KT100 and mortality after 24 hours); assay type: in vivo
Text: The fractionated component E2-4-2 which is a mixture of compound A and compound B was subjected to the insecticidal efficacy test based on the test conditions shown in Table 3, wherein the concentration of the fractionated component E2-4-2, natural pyrethrin, and dl-d-T80-allethrin was further diluted for the test.

adults of house flies = conditions: cited from earlier work
[1] = system: adults of Blattella germanica; conditions: on the basis of the LD50 value by a microdropping method; cited from earlier work

Which KT100 value (Female house mosquitoes; Table 4, 0.001 mg/6.15 cm^2) does the source give for `C=CCC1=C(C)C(OC(=O)C2C(C=C(C)C)C2(C)C)CC1=O` (racemic) [dl-d-T80-allethrin] here?
The KT100 value was 50 min.

What about the “The mortality after 24 hours” value (Female house mosquitoes; Table 4, 0.001 mg/6.15 cm^2) of the same compound?
Its value is 83%.

What about the KT100 value (Female house mosquitoes; Table 4, 0.01 mg/6.15 cm^2) of the same compound?
Its KT100 value is <5 min.

And the “The mortality after 24 hours” value (Female house mosquitoes; Table 4, 0.01 mg/6.15 cm^2)?
Its value is 100%.

And the “The mortality after 24 hours” value (Female house mosquitoes; Table 4, 0.1 mg/6.15 cm^2)?
The value was 100%.

What about the KT100 value (Female house mosquitoes; Table 4, 0.1 mg/6.15 cm^2, time to 100% knockdown) of the same compound?
Its KT100 value is <5 min.

And the KT100 value (Female house mosquitoes; Table 5, 10^−1 mg/6.15 cm^2)?
Its KT100 value is <5 min.

And the “The mortality after 24 hours” value (Female house mosquitoes; Table 5, 10^−1 mg/6.15 cm^2)?
Its value is 100%.

And the KT100 value (Female house mosquitoes; Table 5, 10^−2 mg/6.15 cm^2)?
The KT100 value was <5 min.

And the “The mortality after 24 hours” value (Female house mosquitoes; Table 5, 10^−2 mg/6.15 cm^2)?
The value was 100%.

And the KT100 value (Female house mosquitoes; Table 5, 10^−3 mg/6.15 cm^2)?
Its KT100 value is 50 min.

And the “The mortality after 24 hours” value (Female house mosquitoes; Table 5, 10^−3 mg/6.15 cm^2)?
Its value is 83%.

What about the KT100 value (Female house mosquitoes; Table 5, 10^−4 mg/6.15 cm^2) of the same compound?
Its KT100 value is >120 min.

And the “The mortality after 24 hours” value (Female house mosquitoes; Table 5, 10^−4 mg/6.15 cm^2)?
The value was 17%.

What about the KT100 value (Female house mosquitoes; Table 7, 10^−5 mg/6.15 cm^2) of the same compound?
The KT100 value was “cannot achieved; also recorded: Survive”.

And the “The mortality after 24 hours” value (Female house mosquitoes; Table 7, 10^−5 mg/6.15 cm^2)?
Its value is 0%.

What about the “dose required for killing the adults of house flies relative to the dose required for killing the adults of house mosquitoes” value (adults of house flies; on the basis of the LD50 value by a microdropping method) of the same compound?
The value was “about 17 times”.

And the “dose required for killing the adult house flies relative to the dose required for killing northern house mosquitoes” value (adults of house flies; rounded statement)?
Its value is “about 20 times”.

What about the “dose required for killing the adults of Blattella germanica relative to the dose required for killing the adults of house mosquitoes” value [1] of the same compound?
Its value is “about 103 times”.
